The source of these data is patent US12577231B2, “Androgen receptor PROTACS” (GlaxoSmithKline Intellectual Property Development Limited, priority 2023, dated 2026).

Positions count from the first letter of the chain named.

In data set [1] the target is T1, Androgen Receptor, LNCaP (AR T878A) (Homo sapiens, UniProt P10275, T878A).
T1 construct: endogenous in cells; host or cells: LNCaP
T1 sequence (P10275 1-920 T878A): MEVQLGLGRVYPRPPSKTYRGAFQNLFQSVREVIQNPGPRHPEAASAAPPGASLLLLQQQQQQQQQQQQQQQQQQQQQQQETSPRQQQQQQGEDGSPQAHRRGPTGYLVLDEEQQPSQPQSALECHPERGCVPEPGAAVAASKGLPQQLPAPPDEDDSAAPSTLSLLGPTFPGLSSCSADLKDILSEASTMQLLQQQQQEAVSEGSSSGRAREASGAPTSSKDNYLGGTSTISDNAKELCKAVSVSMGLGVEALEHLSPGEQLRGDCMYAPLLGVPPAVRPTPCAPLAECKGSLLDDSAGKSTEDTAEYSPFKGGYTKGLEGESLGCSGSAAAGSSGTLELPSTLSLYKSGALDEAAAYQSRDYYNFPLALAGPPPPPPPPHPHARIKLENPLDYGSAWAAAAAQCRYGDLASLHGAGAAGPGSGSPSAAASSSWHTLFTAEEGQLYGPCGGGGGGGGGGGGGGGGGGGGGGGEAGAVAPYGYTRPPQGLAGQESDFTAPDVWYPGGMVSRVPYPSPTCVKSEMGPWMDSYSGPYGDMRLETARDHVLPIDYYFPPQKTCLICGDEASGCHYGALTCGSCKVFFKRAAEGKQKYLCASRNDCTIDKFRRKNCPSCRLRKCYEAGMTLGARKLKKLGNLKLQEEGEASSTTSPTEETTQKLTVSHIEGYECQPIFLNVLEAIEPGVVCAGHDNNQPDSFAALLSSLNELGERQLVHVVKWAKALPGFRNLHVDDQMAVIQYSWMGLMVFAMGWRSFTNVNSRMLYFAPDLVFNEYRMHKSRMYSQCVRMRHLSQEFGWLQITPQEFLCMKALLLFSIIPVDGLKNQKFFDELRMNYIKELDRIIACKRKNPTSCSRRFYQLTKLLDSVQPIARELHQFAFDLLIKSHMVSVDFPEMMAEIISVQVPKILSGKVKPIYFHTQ
In words: Androgen Receptor Degradation-Imaging Assay, LNCaP cell line. The note with it: 16 hours treatment, maximum observed degradation. It is filed as cell-based. How it is done:
(§1) Degradation of Androgen Receptor (AR) protein in human prostate cancer cell lines (MDA-PCa-2b (AR T878A/L702H), LNCaP (AR T878A), VCaP (AR wild type and amplified) 22RV1 (AR H875Y) and PC3 (AR negative control)) treated with AR PROTACs was quantified using immunofluorescence. Prostate cancer cells were plated (MDA-PCa-2b, and VCaP 16,000 cells/well; LNCaP and 22RV1 32,000 cells/well, and PC3 8,000 cells/well) in an optical bottom 96-well cell culture plate and allowed to attach overnight. The prostate cancer cell lines were treated for 16 hours with a 10-point 3-fold dilution series (dose range=0.02 nM to 333 nM). PC3 is included as an AR negative control and not treated with compound. Cells are fixed and permeabilized with 4% formaldehyde, blocked with 10% goat serum in immunofluorescence (IF) buffer (130 mM NaCl, 7 mM Na2HPO4, 3.5 mM NaH2PO4, 7.7 mM NaN3, 0.1% BSA, 0.2% Triton X, 0.05% Tween 20) prior to overnight incubation with rabbit antibody specific for C terminus of AR (commercially available from RevMaB Biosciences). Following washes with IF buffer, cells were incubated with fluorescent secondary antibody (Goat anti-rabbit Alexa 647; commercially available from Invitrogen) and Hoechst nuclear stain (commercially available from Themo Scientific) prior to quantification of nuclear AR levels via Opera Phenix high-content fluorescent imager using a 40× water objective. Image analysis was performed with Harmony software.
(§2) The averaged nuclear Alexa 647 median fluorescence intensity (MFI) of PC3 cells is subtracted from the nuclear Alexa 647 MFI of PROTAC treated and DMSO control treated cells. % AR remaining is calculated for PROTAC treatments as a percent of the DMSO control (MFI PROTAC treated/MFI DMSO control treated)*100). DC50 and the Dmax values, were obtained from these normalised values fitted with a 4-parameter sigmoidal response curve (Xlfit software). The DC50 is the interpolated concentration of PROTAC corresponding to 50% of the protein being degraded, and the Dmax parameter is the maximum experimentally observed degradation.

The target of data set [2] is T2, Androgen Receptor, VCaP (AR wild type and amplified) (Homo sapiens, UniProt P10275).
T2 construct: endogenous in cells; host or cells: VCaP
T2 sequence (P10275 1-920): T1 sequence (P10275 1-920 T878A) with A878T
The data set can be described thus: Androgen Receptor Degradation-Imaging Assay, VCaP cell line. It is filed as cell-based. To be noted: 16 hours treatment, maximum observed degradation. As for the experimental part:
as §1, §2

The target of data set [3] is T3, Androgen Receptor, MDA-PCa-2b (AR T878A/L702H) (Homo sapiens, UniProt P10275, L702H/T878A).
T3 construct: host or cells: MDA-PCa-2b
T3 sequence (P10275 1-920 L702H/T878A): T1 sequence (P10275 1-920 T878A) with L702H
In words: Androgen Receptor Degradation-Imaging Assay, MDA-PCa-2b cell line. The format is cell-based. The note with it: 16 hours treatment, maximum observed degradation. As for the experimental part: as §1, §2

The nature of data set [4]: Systemic exposure following oral administration in the rat. To be noted: for AUC0-t: 72 hours sampling; for AUC0-t / Cmax / Dose Normalised AUC0-t / Tmax: mean±SD (n=3); for *Estimated Bioavailability: dose normalised AUC0-t against an IV dose of 0.5 mg/kg.
Protocol: Systemic exposure of various forms of N-((1r,3r)-3-(4-cyano-3-methoxyphenoxy)-2,2,4,4-tetramethylcyclobutyl)-4-(4-((4-(4-(2,4-dioxotetrahydropyrimidin-1(2H)-yl)-1H-pyrazolo[4,3-c]pyridin-1-yl)piperidin-1-yl)methyl)piperidin-1-yl)-3-fluorobenzamide were assessed following oral administration of 30 mg/kg of a suspension formulation (1% methylcellulose (aq)) or following oral administration of 35 mg/kg of a suspension formulation (100% PEG400) in the male Wistar Han rat. […] The sampling period was 72 hours, and the data is reported in the attached table as mean±SD (n=3).
Setting [5] is: 30 mg/kg in 1% methylcellulose (aq.), male Wistar Han rat, 30 mg/kg.
Where [6] appears, read: 35 mg/kg in 100% PEG400, male Wistar Han rat, 35 mg/kg.

On to `COc1cc(O[C@H]2C(C)(C)[C@H](NC(=O)c3ccc(N4CCC(CN5CCC(n6ccc7c(N8CCC(=O)NC8=O)nccc76)CC5)CC4)c(F)c3)C2(C)C)ccc1C#N` [Example 17, N-((1r,3r)-3-(4-Cyano-3-methoxyphenoxy)-2,2,4,4-tetramethylcyclobutyl)-4-(4-((4-(4-(2,4-dioxotetrahydropyrimidin-1(2H)-yl)-1H-pyrrolo[3,2-c]pyridin-1-yl)piperidin-1-yl)methyl)piperidin-1-yl)-3-fluorobenzamide], for which the greatest degradation seen (Dmax) in data set [1], in data set [2] and in data set [3] was not below 80% in each case.

`COc1cc(O[C@H]2C(C)(C)[C@H](NC(=O)c3ccc(N4CCC(CN5CCC(n6ncc7c(N8CCC(=O)NC8=O)nccc76)CC5)CC4)c(F)c3)C2(C)C)ccc1C#N` [Crystalline API, N-((1r,3r)-3-(4-cyano-3-methoxyphenoxy)-2,2,4,4-tetramethylcyclobutyl)-4-(4-((4-(4-(2,4-dioxotetrahydropyrimidin-1(2H)-yl)-1H-pyrazolo[4,3-c]pyridin-1-yl)piperidin-1-yl)methyl)piperidin-1-yl)-3-fluorobenzamide]: in data set [4] (setting [5]), the AUC0-t amounted to 4.38 ± 1.45 µg·h/mL, the Cmax is 0.185 ± 0.076 µg/mL, the “Dose Normalised AUC0-t” value is reported as 148 ± 49 (ng · h/mL)/(mg/kg and the time to peak (Tmax) was determined as 7.3 ± 1.2 h. Further, the “*Estimated Bioavailability” value in data set [4] (30 mg/kg in 1% methylcellulose (aq.), rat) is recorded as 16%. In addition, in data set [4] (setting [6]), the AUC0-t stood at 10.7 ± 3.37 µg·h/mL, the Cmax was 0.42 ± 0.123 µg/mL, the “Dose Normalised AUC0-t” value is 309 ± 98 (ng · h/mL)/(mg/kg and the Tmax came out at 9.3 ± 2.3 h. Moreover, the “*Estimated Bioavailability” value in data set [4] (35 mg/kg in 100% PEG400, rat) is given as 33%.

What is called Dmax is the largest share of the target that was removed. Broadly, the Cmax is the peak of the concentration-time curve. In general, Tmax refers to the time at which the peak concentration occurs.
